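Step 1: Grow cells in 96-well plates. Step 2: Expose to compound for 48 hours at 5 concentrations. Step 3: Interpolate endpoints linearly; if unreached, use highest concentration. GI50: concentration for 50% inhibition of growth. TGI denotes the concentration required for complete inhibition of growth.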
Legend:
Experiment in all cases: inhibition of tumour cell growth, NCI panel, 48 h
[1] = test system: SNB-75 CNS
[2] = test system: OVCAR-3 ovarian
[3] = test system: TK-10 renal
[4] = test system: LOX IMVI melanoma
[5] = test system: DU-145 prostate
[6] = test system: OVCAR-8 ovarian
[7] = test system: MDA-MB-435
[8] = test system: MOLT-4 leukemia
[9] = test system: NCI-H23 lung
[10] = test system: SK-OV-3 ovarian
[11] = test system: ACHN renal
[12] = test system: NCI/ADR-RES ovarian
[13] = test system: SF-295 CNS
[14] = test system: SR leukemia
[15] = test system: CCRF-CEM leukemia
[16] = test system: 786-0 renal
[17] = test system: UO-31 renal
[18] = test system: SK-MEL-28 melanoma
[19] = test system: A498 renal
[20] = test system: HCT-116 colon
[21] = test system: SW-620 colon
[22] = test system: KM12 colon
[23] = test system: SNB-19 CNS
[24] = test system: SN12C renal
[25] = test system: COLO 205 colon
[26] = test system: OVCAR-4 ovarian
[27] = test system: SK-MEL-2 melanoma
[28] = test system: HOP-62 NSCLC
[29] = test system: UACC-257 melanoma
[30] = test system: BT-549 breast
[31] = test system: HT29 colon
[32] = test system: U251 CNS
[33] = test system: NCI-H226 lung
[34] = test system: NCI-H460 lung
[35] = test system: HCC-2998 colon
[36] = test system: T-47D breast
[37] = test system: NCI-H522 lung
[38] = test system: OVCAR-5 ovarian
[39] = test system: PC-3 prostate
[40] = test system: MDA-MB-231 breast
[41] = test system: HS 578T breast
[42] = test system: MDA-N
[43] = test system: M14 melanoma
[44] = test system: K-562 leukemia
[45] = test system: SF-539 CNS
[46] = test system: EKVX NSCLC
[47] = test system: MALME-3M melanoma
[48] = test system: A549 NSCLC
[49] = test system: RXF 393 renal
[50] = test system: HCT-15 colon
[51] = test system: HOP-92 NSCLC
[52] = test system: MCF7 breast
[53] = test system: CAKI-1 renal
[54] = test system: IGROV1 ovarian
[55] = test system: UACC-62 melanoma
[56] = test system: RPMI-8226 leukemia
[57] = test system: SK-MEL-5 melanoma
[58] = test system: SF-268 CNS
[59] = test system: HL-60(TB) leukemia

Question: Which TGI [1] does the source give for `CC#Cc1cc2c(cc1O)CC[C@@H]1[C@@H]2CC[C@]2(C)[C@@H](O)CC[C@@H]12` here?
Answer: 27.6 µM

Question: And the GI50 [2]?
Answer: 0.337 µM

Question: What about the TGI [2] of the same compound?
Answer: 3.26 µM

Question: What about the TGI [3] of the same compound?
Answer: > 91.3 µM

Question: And the TGI [4]?
Answer: 19.5 µM

Question: What about the TGI [5] of the same compound?
Answer: 46.9 µM

Question: And the TGI [6]?
Answer: 19.9 µM

Question: What about the TGI [7] of the same compound?
Answer: 0.814 µM

Question: And the TGI [8]?
Answer: 17.2 µM

Question: And the TGI [9]?
Answer: 10.6 µM

Question: And the TGI [10]?
Answer: > 62.2 µM

Question: And the TGI [11]?
Answer: > 69.6 µM

Question: What about the TGI [12] of the same compound?
Answer: 10.3 µM

Question: And the TGI [13]?
Answer: 2.73 µM

Question: And the TGI [14]?
Answer: 25.7 µM

Question: What about the TGI [15] of the same compound?
Answer: > 100 µM

Question: What about the TGI [16] of the same compound?
Answer: 35.1 µM

Question: What about the TGI [17] of the same compound?
Answer: 39 µM

Question: What about the TGI [18] of the same compound?
Answer: 23.7 µM

Question: And the TGI [19]?
Answer: 27.9 µM

Question: What about the GI50 [20] of the same compound?
Answer: 0.48 µM

Question: And the TGI [20]?
Answer: 17.3 µM

Question: And the TGI [21]?
Answer: 11.1 µM

Question: And the TGI [22]?
Answer: 14.1 µM

Question: And the TGI [23]?
Answer: 29.1 µM

Question: And the TGI [24]?
Answer: 22.8 µM

Question: What about the TGI [25] of the same compound?
Answer: 33.4 µM

Question: What about the TGI [26] of the same compound?
Answer: 62 µM

Question: What about the TGI [27] of the same compound?
Answer: 15.1 µM

Question: What about the TGI [28] of the same compound?
Answer: 16 µM

Question: And the TGI [29]?
Answer: 28.1 µM

Question: And the TGI [30]?
Answer: 24.5 µM

Question: And the TGI [31]?
Answer: 30.5 µM

Question: What about the TGI [32] of the same compound?
Answer: 7.81 µM

Question: What about the TGI [33] of the same compound?
Answer: 17.8 µM

Question: What about the TGI [34] of the same compound?
Answer: 20.2 µM

Question: And the TGI [35]?
Answer: 19.2 µM

Question: And the TGI [36]?
Answer: > 89.6 µM

Question: What about the TGI [37] of the same compound?
Answer: 2.71 µM

Question: And the TGI [38]?
Answer: 48.4 µM

Question: And the TGI [39]?
Answer: 39 µM

Question: What about the TGI [40] of the same compound?
Answer: 46.2 µM

Question: What about the TGI [41] of the same compound?
Answer: 29.5 µM

Question: What about the TGI [42] of the same compound?
Answer: 0.547 µM

Question: And the TGI [43]?
Answer: 17.7 µM

Question: And the TGI [44]?
Answer: > 100 µM

Question: And the GI50 [45]?
Answer: 0.939 µM

Question: And the TGI [45]?
Answer: 6.04 µM

Question: And the TGI [46]?
Answer: 26 µM

Question: What about the TGI [47] of the same compound?
Answer: 18.3 µM

Question: And the TGI [48]?
Answer: > 37.8 µM

Question: What about the TGI [49] of the same compound?
Answer: 13.8 µM

Question: What about the TGI [50] of the same compound?
Answer: 14.2 µM

Question: What about the TGI [51] of the same compound?
Answer: 26.9 µM

Question: What about the TGI [52] of the same compound?
Answer: 64.3 µM

Question: And the TGI [53]?
Answer: > 69.6 µM

Question: What about the TGI [54] of the same compound?
Answer: 38.1 µM

Question: What about the GI50 [55] of the same compound?
Answer: 0.503 µM

Question: What about the TGI [55] of the same compound?
Answer: 16.7 µM

Question: And the TGI [56]?
Answer: > 66.1 µM

Question: What about the TGI [57] of the same compound?
Answer: 13.8 µM

Question: And the TGI [58]?
Answer: > 100 µM

Question: `C[C@H]1CCCCC[C@@H]2CC(=O)CC2C(=O)CCC(=O)O1` (stereo not given in full) was tested. Which TGI [1] did it give?
Answer: > 100 µM

Question: What about the TGI [59] of the same compound?
Answer: > 100 µM

Question: And the TGI [2]?
Answer: > 100 µM

Question: And the TGI [3]?
Answer: > 100 µM

Question: What about the TGI [5] of the same compound?
Answer: > 100 µM

Question: What about the TGI [6] of the same compound?
Answer: > 100 µM

Question: What about the TGI [7] of the same compound?
Answer: > 100 µM

Question: And the TGI [8]?
Answer: > 100 µM

Question: What about the TGI [9] of the same compound?
Answer: > 100 µM

Question: What about the TGI [11] of the same compound?
Answer: > 100 µM

Question: What about the TGI [12] of the same compound?
Answer: > 100 µM

Question: What about the TGI [13] of the same compound?
Answer: > 100 µM

Question: What about the TGI [14] of the same compound?
Answer: > 100 µM

Question: What about the TGI [15] of the same compound?
Answer: > 100 µM

Question: And the TGI [16]?
Answer: > 100 µM

Question: What about the TGI [18] of the same compound?
Answer: > 100 µM

Question: And the TGI [20]?
Answer: > 100 µM

Question: And the TGI [21]?
Answer: > 100 µM

Question: What about the TGI [22] of the same compound?
Answer: > 100 µM

Question: What about the TGI [23] of the same compound?
Answer: > 100 µM

Question: What about the TGI [24] of the same compound?
Answer: > 100 µM

Question: And the TGI [25]?
Answer: > 100 µM

Question: What about the TGI [26] of the same compound?
Answer: > 100 µM

Question: What about the TGI [28] of the same compound?
Answer: > 100 µM

Question: What about the TGI [29] of the same compound?
Answer: > 100 µM

Question: What about the TGI [30] of the same compound?
Answer: > 100 µM

Question: What about the TGI [31] of the same compound?
Answer: > 100 µM

Question: And the TGI [32]?
Answer: > 100 µM

Question: And the TGI [33]?
Answer: > 100 µM

Question: And the TGI [34]?
Answer: > 100 µM

Question: And the TGI [35]?
Answer: > 100 µM

Question: And the TGI [36]?
Answer: > 100 µM

Question: What about the TGI [37] of the same compound?
Answer: > 100 µM

Question: And the TGI [38]?
Answer: > 100 µM

Question: What about the TGI [39] of the same compound?
Answer: > 100 µM

Question: What about the TGI [40] of the same compound?
Answer: > 100 µM

Question: What about the TGI [41] of the same compound?
Answer: > 100 µM

Question: And the TGI [42]?
Answer: > 100 µM

Question: And the TGI [43]?
Answer: > 100 µM

Question: And the TGI [44]?
Answer: > 100 µM

Question: What about the TGI [45] of the same compound?
Answer: > 100 µM

Question: What about the TGI [46] of the same compound?
Answer: > 100 µM

Question: And the TGI [47]?
Answer: > 100 µM

Question: What about the TGI [48] of the same compound?
Answer: > 100 µM

Question: And the TGI [49]?
Answer: > 100 µM

Question: What about the TGI [50] of the same compound?
Answer: > 100 µM

Question: And the TGI [51]?
Answer: > 100 µM

Question: And the TGI [52]?
Answer: > 100 µM

Question: What about the TGI [54] of the same compound?
Answer: > 100 µM

Question: And the TGI [55]?
Answer: > 100 µM

Question: And the TGI [56]?
Answer: > 100 µM

Question: And the TGI [57]?
Answer: > 100 µM

Question: And the TGI [58]?
Answer: > 100 µM

— PubChem BioAssay (NCI)
